Data reported in patent US8962558B2, “Methods for reducing GnRH-positive tumor cell proliferation using the GnRH antagonist IN3” (priority 1997, dated 2015).
Square brackets hold non-standard residues; d marks the D form. Peptide text beside a SMILES is read from it. * marks the point of attachment. Tyr(3-I) = N[C@@H](Cc1ccc(O)c(I)c1)C(=O)O; pGlu = O=C1CC[C@@H](C(=O)O)N1; azaGly = NNC(=O)O; tBu = CC(C)(C)*

Tests used:
BLM human melanoma cells = assay: Proliferation of BLM human melanoma cells (Example 20); assay type: cell-based; conditions: 5×10^−5M
Source text: The effects of the GnRH agonist (D-Lys6)-GnRH, Gossypol, the combination of D-Lys6-GnRH and racemic Gossypol, and a conjugate of (D-Lys6)-GnRH, and racemic Gossypol alone on the proliferation of BLM human melanoma cells are depicted in FIG. 20 (A), (B) and (C), respectively. Results are expressed as mean cell number per plate±SE. *, p<0.05 vs. control (C).

[1] = system: small cell lung carcinoma cell lines NCI-H1688, NCI-H1417, NCI-H1672, NCI-H1836, DMS-79, DM-553, DMS-114, SW-1271, NCI-H2227, NCI-HI1963, SHP-77 and H-69 AR; assay: Proliferation assay on small cell lung carcinoma cell lines (Example 3); assay type: cell-based, human; conditions: small cell lung carcinoma cell lines treated with the substance
Experimental: In another embodiment, the small cell lung carcinoma cell lines NCI-H1688, NCI-H1417, NCI-H1672, NCI-H1836, DMS-79, DM-553, DMS-114, SW-1271, NCI-H2227, NCI-HI1963 and SHP-77 in addition to the multidrug-resistant small cell lung carcinoma cell line H-69 AR, are cultured as described above and then treated as described by Emons, G., et al., 1993, supra, and Irmer, G., 1995, supra, with various concentrations of the GnRH agonists (D-Lys6)-GnRH, Lutrelin, Histrelin, Nafarelin, Azagly-Nafarelin, Deslorelin, Cystorelin, Decapeptyl, Gonadorelin, GnRH, D-Lys(6)-GnRH II, Lamprey GnRH II, (D-Lys6)-Lamprey GnRH, (D-Lys6)-Lamprey GnRH II and Lamprey GnRH III.
In another embodiment, the small cell lung carcinoma cell lines NCI-H1688, NCI-H1417, NCI-H1672, NCI-H1836, DMS-79, DM-553, DMS-114, SW-1271, NCI-H2227, NCI-HI1963 and SHP-77 in addition to the multidrug-resistant small cell lung carcinoma cell line H-69 AR, are cultured as described above for the above-mentioned cell lines, and then treated as described by Emons, G., et al., 1993, supra, and Irmer, G., 1995, supra, with a concentration of the GnRH antagonist Cetrorelix (also known as Cetrotide®) or with a GnRH peptide antagonist Ac-D-Nal(2)-D-4-ClPhe-D-Pal-Ser-1-MePal-D-IsopropylLys-Leu-IsopropylLys-Pro-D-AlaNH2 wherein Mepal is 1-Methyl-3-[3′-pyridyl]-alanine or Ant 135-25 (also known as Ac-D-Nal(2)-D-4-Cl-Phe-D-Pal-Ser-1-MePal-D-IsopropylLys-Leu-IsopropylLys-Pro-D-AlaNH2), Teverelix (also known as Antarelix®), Cetrorelix (also known as Cetrotide®), Abarelix (also known as Plenaxis®), D-63153 (also known as Ozarelix®), acyline, azaline B, antide (also known as Iturelix®), Degarelix (FE200486), Ganirelix, Nal-Glu, Orntide (also known as Ornirelix®) or with antagonist peptidomimetic ((2S)-2-[5-[2-(2-azabicyclo[2,2,2]oct-2-yl)-1,1-dimethyl-2-oxoethyl]-2-(3,5-dimethylphenyl)-1H-indol-3-yl]-N-(2-pyridin-4-ylethyl-)propan-1-amine (also known as “IN3”).

[2] = system: human glioblastoma cell lines U-87MG or U-373MG, Kaposi sarcoma cell lines KSY-1 or KS-SLK, malignant melanoma cell line MV3 or BLM, medulloblastoma cell line …; assay: Proliferation assay on cell cultures (Example 3); assay type: cell-based; conditions: cell lines of Example 3 treated with the substance
Experimental: A human cell line, such as the well known human glioblastoma cell lines U-87MG or U-373MG (Pinski et al., supra), or a human cell line such as the well known Kaposi sarcoma cell lines KSY-1 or KS-SLK (Parkash et al., 1996, New England Journal of Medicine, 335, 17, 1261-1269), or a human cell line such as the well known human malignant melanoma cell line MV3 or BLM (Goldbrunner, R. H., et al., 1996, Anticancer Research 16 (6B), 3679-87), or a human medulloblastoma cell line such as the well known cell line Daoy or D283 MED (Stockhammer et al., 1995, J. Neurosurgery, 83, 672-681), or human meningeoma cell cultures (Boyle-Wash, E., et al., 1995, Journal of Endocrinology, 145, 155-161), are cultured as previously described for the above-mentioned cell lines and then treated with a concentration of the GnRH agonist Triptorelin®, GnRH antagonist SB-75 (Cetrorelix®) or GnRH antagonist Ramorelix®. […]
In another embodiment, the above-mentioned cell lines are treated as described by Emons, G., et al., 1993, supra, and Irmer, G., 1995, supra, with a concentration of the GnRH peptide antagonist Ac-D-Nal(2)-D-4-ClPhe-D-Pal-Ser-1-MePal-D-IsopropylLys-Leu-IsopropylLys-Pro-D-AlaNH2 (also known as Ant 135-25; the Mepal portion is known as 1-Methyl-3-[3′-pyridyl]-alanine), Teverelix (also known as Antarelix®), Cetrorelix (also known as Cetrotide®), Abarelix (also known as Plenaxis®), D-63153 (also known as Ozarelix®), acyline, azaline B, antide (also known as Iturelix®), Degarelix (FE200486), Ganirelix, Nal-Glu, Orntide (also known as Ornirelix®), Elagolix, or with antagonist peptidomimetic ((2S)-2-[5-[2-(2-azabicyclo[2,2,2]oct-2-yl)-1,1-dimethyl-2-oxoethyl]-2-(3,5-dimethylphenyl)-1H-indol-3-yl]-N-(2-pyridin-4-ylethyl-)propan-1-amine (also known as “IN3”).
In another embodiment, the cell lines used above were each additionally treated with a second GnRH antagonist, namely one of the GnRH antagonists Cetrorelix®, Ant 135-25, IN3, degarelix, Antarelix®, Antide®, and Ramorelix® or alternatively with one of the GnRH antagonists that have been disclosed in U.S. Pat. Nos. 6,939,88, 6,200,957, 5,296,468, 4,851,385, 7,361,633, 7,288,517, WO/2009/106597 or PCT/EP2009/052326, U.S. Pat. Nos. 5,480,969, 5,198,533, or UK Patent GB 2 246782 B, wherein these additional treatment procedures were carried out in a manner similar to those reported in Emons et al., supra, using SB 75 (Cetrorelix®). […]

[3] = system: malignant gliomas U-87MG and U-373MG; assay: In vivo study with tumor-implanted nude mice (Example 4); conditions: daily dosages
Experimental: An effect of the treatment of tumor-implanted nude mice (Pinski et al., supra) each with one of the GnRH agonists Buserelin, Triptorelin, Goserelin, and Leuprorelin and each with one of the GnRH antagonists Cetrorelix® (SB-75), Antarelix®, Antide®, and Ramorelix® on the growth of malignant gliomas U-87MG and U-373MG was carried out using daily dosages and controls in nude mice using analysis techniques described for the determination of the efficacy of similar peptides in Pinski et al., supra.

[4] = system: ovarian carcinoma cell lines; conditions: 10^−5 M, day 6; cited from earlier work
[5] = target: T1, LHRH receptors in BLM melanoma cells (Homo sapiens, UniProt P30968); assay: 125I-LHRH-A binding to BLM cell membranes
T1 construct: endogenous in cells; host or cells: BLM human melanoma cells (membranes)
T1 sequence (P30968 1-328): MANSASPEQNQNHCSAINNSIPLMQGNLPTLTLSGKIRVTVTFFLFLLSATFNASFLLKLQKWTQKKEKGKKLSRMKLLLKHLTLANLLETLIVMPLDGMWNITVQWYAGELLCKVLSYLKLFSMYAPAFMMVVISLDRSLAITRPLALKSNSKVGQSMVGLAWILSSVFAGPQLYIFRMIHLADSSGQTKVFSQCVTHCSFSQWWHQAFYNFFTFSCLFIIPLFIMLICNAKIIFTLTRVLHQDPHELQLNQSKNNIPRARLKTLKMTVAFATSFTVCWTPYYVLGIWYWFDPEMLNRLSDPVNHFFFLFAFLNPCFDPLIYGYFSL
Experimental: (§1) GnRH receptors in melanoma cells have been analyzed also in terms of binding parameters.
(§2) Binding characteristics were evaluated from displacement curves as described in Materials and Methods.

[6] = target: T2, LHRH receptors in Me15392 melanoma cells (Homo sapiens, UniProt P30968); assay: 125I-LHRH-A binding to Me15392 cell membranes
T2 construct: endogenous in cells; host or cells: Me15392 human melanoma cells (membranes)
T2 sequence (P30968 1-328): T1 sequence (P30968 1-328)
Experimental: as §1, §2

[7] = target: T3, LHRH receptors in rat pituitaries (Rattus norvegicus, UniProt P30969); assay: 125I-LHRH-A binding to rat pituitaries (control)
T3 construct: from tissue; host or cells: rat pituitary
T3 sequence (P30969 1-327): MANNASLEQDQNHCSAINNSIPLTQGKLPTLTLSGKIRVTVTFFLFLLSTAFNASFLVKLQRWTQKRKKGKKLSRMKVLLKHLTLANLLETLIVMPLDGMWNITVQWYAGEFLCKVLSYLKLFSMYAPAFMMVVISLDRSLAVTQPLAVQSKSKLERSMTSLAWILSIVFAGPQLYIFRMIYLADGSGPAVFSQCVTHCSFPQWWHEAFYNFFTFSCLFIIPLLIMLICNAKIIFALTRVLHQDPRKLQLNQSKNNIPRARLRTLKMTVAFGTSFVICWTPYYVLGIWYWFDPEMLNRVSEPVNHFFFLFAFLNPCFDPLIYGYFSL
Experimental: as §1, §2

^125I-LHRH-A binding Capacity [5]	^125I-LHRH-A binding Capacity [6]	^125I-LHRH-A binding Capacity [7]	Compound	inhibition of cellular proliferation versus controls (BLM human melanoma cells) [%]	anti-proliferative effects in tumor cells [1]	anti-proliferative effects in tumor cells [2]	growth of malignant gliomas [3]	inhibition of proliferation [4] [%]
			(D-Lys6)-GnRH	39	Significant anti-proliferative effects	Significant anti-proliferative effects		
			CC(C)C[C@H](NC(=O)[C@@H](Cc1c[nH]c2ccccc12)NC(=O)[C@H](Cc1ccc(O)cc1)NC(=O)[C@H](CO)NC(=O)[C@H](Cc1c[nH]c2ccccc12)NC(=O)[C@H](Cc1c[nH]cn1)NC(=O)[C@@H]1CCC(=O)N1)C(=O)N[C@@H](CCCNC(=N)N)C(=O)N1CCC[C@H]1C(=O)NCC(N)=O [Triptorelin®]			Significant anti-proliferative effects	Significant growth-inhibiting effects	40
150-200 fmoles/mg protein	200-250 fmoles/mg protein	70-100 fmoles/mg protein	CC(C)C[C@H](NC(=O)[C@@H](COC(C)(C)C)NC(=O)[C@H](Cc1ccc(O)c(I)c1)NC(=O)[C@H](CO)NC(=O)[C@H](Cc1c[nH]c2ccccc12)NC(=O)[C@H](Cc1c[nH]cn1)NC(=O)[C@@H]1CCC(=O)N1)C(=O)N[C@@H](CCCNC(=N)N)C(=O)N1CCC[C@H]1C(=O)NNC(N)=O [^125I-LHRH-A] ([pGlu]HWS[Tyr(3-I)][dS](tBu)LRP[azaGly]-NH2; C-terminus assumed)					
